Experimental data from ChEMBL document CHEMBL6074662, “Antibacterial, Antibiofilm, and Anti-inflammatory Effects of a Novel Thrombin-Derived Peptide in Sepsis Models: Insights into Underlying Mechanisms” (J Med Chem, 2024).
Activity calls are given as the source filed them. No cut-off for these calls is given here.

How the values were obtained:
Bacillus subtilis = assay: Antibacterial activity against Bacillus subtilis KCTC 3068 incubated for 24 hrs by CLSI based broth microdilution method; format: functional
[1] = test system: Staphylococcus epidermidis; assay: Antibacterial activity against Staphylococcus epidermidis KCTC 1917 incubated for 24 hrs by CLSI based broth microdilution method; format: functional
Escherichia coli [2] = assay: Antibacterial activity against Escherichia coli KCTC 1682 incubated for 24 hrs in presence of FeCl3 by CLSI based broth microdilution method; format: functional
Staphylococcus aureus [3] = assay: Antibacterial activity against methicillin-resistant Staphylococcus aureus CCARM 3089 incubated for 24 hrs by CLSI based broth microdilution method; format: functional
Staphylococcus aureus [4] = assay: Antibacterial activity against methicillin-resistant Staphylococcus aureus CCARM 3095 incubated for 24 hrs by CLSI based broth microdilution method; format: functional
Pseudomonas aeruginosa [5] = assay: Antibacterial activity against Pseudomonas aeruginosa KCTC 1637 incubated for 24 hrs by CLSI based broth microdilution method; format: functional
Salmonella typhimurium = assay: Antibacterial activity against Salmonella typhimurium KCTC 1926 incubated for 24 hrs by CLSI based broth microdilution method; format: functional, Salmonella enterica subsp. enterica serovar Typhimurium; conditions: Salmonella enterica
Acinetobacter baumannii [6] = assay: Antibacterial activity against multidrug-resistant Acinetobacter baumannii 329-97 incubated for 24 hrs by CLSI based broth microdilution method; format: functional
Acinetobacter baumannii [7] = assay: Antibacterial activity against carbapenem-resistant Acinetobacter baumannii NMS 1707 incubated for 24 hrs by CLSI based broth microdilution method; format: functional
Acinetobacter baumannii [8] = assay: Antibacterial activity against carbapenem-resistant Acinetobacter baumannii NMS 1915 incubated for 24 hrs by CLSI based broth microdilution method; format: functional
[9] = Effect on secondary structure of drug in PBS assessed as formation of random coil structure at 150 uM by CD analysis; format: physicochemical; conditions: buffer
[10] = Effect on secondary structure of drug in TFE assessed as fold increase in formation of alpha-helical conformation at 150 uM by CD analysis relative to HVF18; format: physicochemical
Escherichia coli [11] = assay: Induction of resistance development in Escherichia coli KCTC 1682 at 0.5 times MIC measured after 30 passages; format: functional, organism-based
Escherichia coli [12] = assay: Induction of cytoplasmic membrane potential in Escherichia coli KCTC 1682 at 0.5 to 1 times MIC measured for 500 secs by diSC3-5 dye based analysis; format: functional, organism-based; conditions: time 500.0 sec
Escherichia coli [13] = assay: Induction of cytoplasmic membrane depolarization in Escherichia coli KCTC 1682 at 0.5 times MIC measured for 500 secs by diSC3-5 dye based analysis relative to control; format: functional; conditions: time 500 sec; 0.1389 h
Escherichia coli [14] = assay: Induction of cytoplasmic membrane depolarization in Escherichia coli KCTC 1682 at MIC measured for 500 secs by diSC3-5 dye based analysis relative to control; format: functional; conditions: time 500 sec; 0.1389 h
Escherichia coli [15] = assay: Induction of inner membrane permeabilization in Escherichia coli KCTC 1682 at 0.5 times MIC by PI staining based flow cytometry (reference value: 1.51 %); format: functional
Pseudomonas aeruginosa [16] = assay: Eradication of biofilm formation in multi-drug resistant Pseudomonas aeruginosa CCARM 2095 at 1 to 128 uM incubated for 12 hrs by CLSM analysis; format: functional, organism-based; conditions: dose 1-128 µM
Staphylococcus aureus [17] = assay: Antibacterial activity against methicillin-resistant Staphylococcus aureus CCARM 3089 incubated for 24 hrs by broth microdilution method; format: functional
Staphylococcus aureus [18] = assay: Synergistic antibacterial activity against methicillin-resistant Staphylococcus aureus CCARM 3089 assessed as fractional inhibitory concentration index by measuring ratio of MIC of Chloramphenicol in presence of compound to MIC to Chloramphenicol incubated for 24 hrs by broth microdilution method; format: functional
Staphylococcus aureus [19] = assay: Synergistic antibacterial activity against methicillin-resistant Staphylococcus aureus CCARM 3089 assessed as fractional inhibitory concentration index incubated for 24 hrs in presence of Chloramphenicol by broth microdilution method; format: functional
Staphylococcus aureus [20] = assay: Synergistic antibacterial activity against methicillin-resistant Staphylococcus aureus CCARM 3089 assessed as MIC of Ciprofloxacin incubated for 24 hrs by broth microdilution method; format: functional
Staphylococcus aureus [21] = assay: Synergistic antibacterial activity against methicillin-resistant Staphylococcus aureus CCARM 3089 assessed as fractional inhibitory concentration index by measuring ratio of MIC of Ciprofloxacin in presence of compound to MIC to Ciprofloxacin incubated for 24 hrs by broth microdilution method; format: functional
Staphylococcus aureus [22] = assay: Synergistic antibacterial activity against methicillin-resistant Staphylococcus aureus CCARM 3089 assessed as fractional inhibitory concentration index by measuring ratio of MIC of compound in presence of Ciprofloxacin to MIC to compound incubated for 24 hrs by broth microdilution method; format: functional
Staphylococcus aureus [23] = assay: Synergistic antibacterial activity against methicillin-resistant Staphylococcus aureus CCARM 3089 assessed as fractional inhibitory concentration index by measuring ratio of MIC of Oxacillin in presence of compound to MIC to Oxacillin incubated for 24 hrs by broth microdilution method; format: functional
Staphylococcus aureus [24] = assay: Synergistic antibacterial activity against methicillin-resistant Staphylococcus aureus CCARM 3089 assessed as fractional inhibitory concentration index by measuring ratio of MIC of compound in presence of Oxacillin to MIC to compound incubated for 24 hrs by broth microdilution method; format: functional
Pseudomonas aeruginosa [25] = assay: Antibacterial activity against multi-drug resistant Pseudomonas aeruginosa CCARM 2095 incubated for 24 hrs by broth microdilution method; format: functional
Pseudomonas aeruginosa [26] = assay: Synergistic antibacterial activity against multi-drug resistant Pseudomonas aeruginosa CCARM 2095 assessed as MIC of Chloramphenicol incubated for 24 hrs by broth microdilution method; format: functional
Pseudomonas aeruginosa [27] = assay: Synergistic antibacterial activity against multi-drug resistant Pseudomonas aeruginosa CCARM 2095 assessed as fractional inhibitory concentration index incubated for 24 hrs in presence of Chloramphenicol by broth microdilution method; format: functional
Pseudomonas aeruginosa [28] = assay: Synergistic antibacterial activity against multi-drug resistant Pseudomonas aeruginosa CCARM 2095 assessed as fractional inhibitory concentration index by measuring ratio of MIC of Ciprofloxacin in presence of compound to MIC to Ciprofloxacin incubated for 24 hrs by broth microdilution method; format: functional
Pseudomonas aeruginosa [29] = assay: Synergistic antibacterial activity against multi-drug resistant Pseudomonas aeruginosa CCARM 2095 incubated for 24 hrs in presence of Oxacillin by broth microdilution method; format: functional
Pseudomonas aeruginosa [30] = assay: Synergistic antibacterial activity against multi-drug resistant Pseudomonas aeruginosa CCARM 2095 assessed as fractional inhibitory concentration index by measuring ratio of MIC of compound in presence of Oxacillin to MIC to compound incubated for 24 hrs by broth microdilution method; format: functional
RAW264.7 [31] = assay: Anti-inflammatory activity in mouse RAW264.7 cells assessed as inhibition of LPS-induced NO production at 2.5 uM pretreated for 1 hr followed by LPS treatment for 16 hrs by Griess assay relative to control; format: functional; conditions: time 17 hrs
RAW264.7 [32] = assay: Anti-inflammatory activity in mouse RAW264.7 cells assessed as decrease in LPS-induced TNF-alpha level at 5 uM pretreated for 1 hr followed by LPS treatment for 16 hrs by ELISA relative to control; format: functional; conditions: time 17 hrs
RAW264.7 [33] = assay: Anti-inflammatory activity in mouse RAW264.7 cells assessed as decrease in LPS-induced IL-6 level at 5 uM pretreated for 1 hr followed by LPS treatment for 16 hrs by ELISA relative to control; format: functional; conditions: time 17 hrs
RAW264.7 [34] = assay: Anti-inflammatory activity in mouse RAW264.7 cells assessed as decrease in LPS-induced ROS production at 5 uM pretreated for 1 hr followed by LPS treatment for 16 hrs by DCFDA staining based analysis relative to control; format: functional

Substance | MIC (Bacillus subtilis) [µM] | MIC [1] [µM] | MIC (Escherichia coli [2]) [µM] | MIC (Staphylococcus aureus [3]) [µM] | MIC (Staphylococcus aureus [4]) [µM] | MIC (Pseudomonas aeruginosa [5]) [µM] | MIC (Salmonella typhimurium) [µM] | MIC (Acinetobacter baumannii [6]) [µM] | MIC (Acinetobacter baumannii [7]) [µM] | MIC (Acinetobacter baumannii [8]) [µM] | Activity [9] | fold change (FC) [10] | Activity (Escherichia coli [11]) | Activity (Escherichia coli [12]) | Activity (Escherichia coli [13]) [%] | Activity (Escherichia coli [14]) [%] | Activity (Escherichia coli [15]) [%] | Activity (Pseudomonas aeruginosa [16]) | MIC (Staphylococcus aureus [17]) [µM] | FIC (Staphylococcus aureus [18]) | other results
H-GVFRLKKWIKKVIKKWGK-NH2 | 4 | 8 | 32 | 8 | 8 | 8 | 4 | 2 | 4 | 2 | Active | ~ 5 | inactive | Active | ~50 | ~100 | ~100 | Active; Superior Activity Compared To Ll-37 | 8 | 0.25 | fractional inhibitory concentration index (FICI) (Staphylococcus aureus [19]): 0.5; MIC (Staphylococcus aureus [20]): 512 µM; FIC (Staphylococcus aureus [21]): 0.5; FIC (Staphylococcus aureus [22]): 0.25; FIC (Staphylococcus aureus [23]): 0.25; FIC (Staphylococcus aureus [24]): 0.063; MIC (Pseudomonas aeruginosa [25]): 8 µM; MIC (Pseudomonas aeruginosa [26]): 512 µM; fractional inhibitory concentration index (FICI) (Pseudomonas aeruginosa [27]): 0.375; FIC (Pseudomonas aeruginosa [28]): 0.125; MIC (Pseudomonas aeruginosa [29]): 2 µM; FIC (Pseudomonas aeruginosa [30]): 0.25; inhibition at 2.5 µM (RAW264.7 [31]): 80.7%; inhibition at 5 µM (RAW264.7 [32]): 5.7%; inhibition at 5 µM (RAW264.7 [33]): 44.4%; inhibition at 5 µM (RAW264.7 [34]): 40%
H-GVFRLKKWLKKVKKWGK-NH2 | 4 | 8 | 32 | 8 | 8 | 8 | 8 | 4 | 4 | 4 | Active | ~ 5 | inactive | Active | ~50 | ~100 | ~100 | Active; Superior Activity Compared To Ll-37 | 8 | 0.5 | fractional inhibitory concentration index (FICI) (Staphylococcus aureus [19]): 0.563; MIC (Staphylococcus aureus [20]): 512 µM; FIC (Staphylococcus aureus [21]): 0.5; FIC (Staphylococcus aureus [22]): 0.5; FIC (Staphylococcus aureus [23]): 0.25; FIC (Staphylococcus aureus [24]): 0.063; MIC (Pseudomonas aeruginosa [25]): 8 µM; MIC (Pseudomonas aeruginosa [26]): 512 µM; fractional inhibitory concentration index (FICI) (Pseudomonas aeruginosa [27]): 0.375; FIC (Pseudomonas aeruginosa [28]): 0.25; MIC (Pseudomonas aeruginosa [29]): 2 µM; FIC (Pseudomonas aeruginosa [30]): 0.25; inhibition at 2.5 µM (RAW264.7 [31]): 80.3%; inhibition at 5 µM (RAW264.7 [32]): 78.1%; inhibition at 5 µM (RAW264.7 [33]): 99%; inhibition at 5 µM (RAW264.7 [34]): 51.1%
